Reference: ChEMBL document CHEMBL1806439, “Synthesis and antihistamine evaluations of novel loratadine analogues” (2011)

Experiments:
[1] = tested on: Cavia porcellus; test: Antiasthmatic activity in guinea pig assessed as inhibition of histamine phosphate solution-induced asthmatic reaction measured as increase in asthmogenic latency period at 0.5 mg/kg administered as intragastric (reference value: 99.30 +/- 30.06 sec); assay type: functional
[2] = tested on: Cavia porcellus; test: Antiasthmatic activity in guinea pig assessed as inhibition of histamine phosphate solution-induced asthmatic reaction measured as increase in asthmogenic latency period at 0.2 mg/kg administered as intragastric (reference value: 95.50 +/- 18.98 sec); assay type: functional
[3] = biological target: Histamine H1 receptor (Cavia porcellus) (UniProt P31389); test: Inhibition of histamine H1 receptor in guinea pig ileum assessed as inhibition of histamine-induced muscle spasms at 2 x 10 '-3 mg/ml after 5 mins (reference value: 0.31 %); assay type: tissue-based
Chain of Histamine H1 receptor (Cavia porcellus) (P31389 whole entry): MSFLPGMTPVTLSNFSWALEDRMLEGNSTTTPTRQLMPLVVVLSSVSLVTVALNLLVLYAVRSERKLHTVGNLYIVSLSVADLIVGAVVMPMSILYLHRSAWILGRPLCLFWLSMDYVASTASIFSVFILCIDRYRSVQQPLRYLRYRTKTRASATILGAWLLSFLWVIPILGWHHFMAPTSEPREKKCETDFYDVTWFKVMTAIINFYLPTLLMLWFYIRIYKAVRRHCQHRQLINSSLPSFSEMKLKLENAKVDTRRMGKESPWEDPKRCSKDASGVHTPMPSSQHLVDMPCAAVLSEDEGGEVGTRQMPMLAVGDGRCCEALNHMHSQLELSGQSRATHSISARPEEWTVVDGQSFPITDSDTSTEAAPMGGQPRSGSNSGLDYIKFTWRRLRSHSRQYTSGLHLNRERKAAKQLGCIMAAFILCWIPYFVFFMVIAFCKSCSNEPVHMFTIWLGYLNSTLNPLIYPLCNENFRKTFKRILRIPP

| Compound | inhibition [3] [%] | Time [1] [s] | Time [2] [s] |
| --- | --- | --- | --- |
| OCCN1CCC(=C2c3ccc(Cl)cc3CCc3cccnc32)CC1 | 50.6 | 248.5 | 133.3 |
| C[C@@H](c1ccccc1)N1CCC(=C2c3ccc(Cl)cc3CCc3cccnc32)CC1 | 32.1 | 273.2 | 170.2 |
| CN(C)CCC(c1ccc(Cl)cc1)c1ccccn1 (configuration not stated) [CHLORPHENIRAMINE] | 41.3 | 214.7 | 105.7 |
| OCCCN1CCC(=C2c3ccc(Cl)cc3CCc3cccnc32)CC1 | 53.7 | 360 | 360 |
| C[C@H](c1ccccc1)N1CCC(=C2c3ccc(Cl)cc3CCc3cccnc32)CC1 | 31.4 | 309.6 | 210.6 |

Continued, in another order:

| inhibition [3] [%] | Compound | Time [1] [s] | Time [2] [s] |
| --- | --- | --- | --- |
| 32.4 | C[C@H](CO)N1CCC(=C2c3ccc(Cl)cc3CCc3cccnc32)CC1 | 215.6 | 111.1 |
| 29.4 | CC[C@H](CO)N1CCC(=C2c3ccc(Cl)cc3CCc3cccnc32)CC1 | 229.2 | 125.3 |
| 53.5 | CC[C@@H](CO)N1CCC(=C2c3ccc(Cl)cc3CCc3cccnc32)CC1 | 216 | 123.1 |
| 49.7 | C[C@@H](CO)N1CCC(=C2c3ccc(Cl)cc3CCc3cccnc32)CC1 | 209.7 | 112.8 |
